System: CYPRO
Test: In-water applied weed control, transplanted paddy rice (greenhouse)
Type: in vivo, Cyperus rotundus L. (purple nutsedge)
Details: 19 DAA
Experimental: Weed seeds or nutlets of the desired test plant species were planted in puddled soil (mud) prepared by mixing a shredded, non-sterilized mineral soil (50.5 percent silt, 25.5 percent clay, and 24 percent sand, with a pH of about 7.6 and an organic matter content of about 2.9 percent) and water at a 1:1 volumetric ratio. The prepared mud was dispensed in 365 mL aliquots into 16-ounce (oz.) non-perforated plastic pots with a surface area of 86.59 square centimeters (cm^2) leaving a headspace of 3 centimeters (cm) in each pot. Rice seeds were planted in Sun Gro MetroMix® 306 planting mixture, which typically has a pH of 6.0 to 6.8 and an organic matter content of about 30 percent, in plastic plug trays. Seedlings at the second or third leaf stage of growth were transplanted into 860 mL of mud contained in 32-oz. non-perforated plastic pots with a surface area of 86.59 cm^2 4 days prior to herbicide application. The paddy was created by filling the headspace of the pots with 2.5 to 3 cm of water. When required to ensure good germination and healthy plants, a fungicide treatment and/or other chemical or physical treatment was applied. The plants were grown for 4-22 days in a greenhouse with an approximate 14 hour (h) photoperiod which was maintained at about 29° C. during the day and about 26° C. during the night. Nutrients were added as Osmocote® (17:6:10, N:P:K+minor nutrients) at 2 g per cup. Water was added on a regular basis to maintain the paddy flood, and supplemental lighting was provided with overhead metal halide 1000-Watt lamps as necessary. The plants were employed for testing when they reached the first through fourth true leaf stage.
Treatments consisted of the acid or esters of 4-amino-3-chloro-5-fluoro-6-(4-chloro-2-fluoro-3-methoxy-phenyl)pyridine-2-carboxylic acid (compound A) each formulated as an SC (suspension concentrate) and various fungicidal components alone and in combination. Forms of compound A were applied on an acid equivalent basis.
Treatment requirements for each compound or fungicidal component were calculated based upon the rates being tested, the concentration of active ingredient or acid equivalent in the formulation, an application volume of 2 mL per component per pot, and an application area of 86.59 cm^2 per pot.
For formulated compounds, a measured amount was placed in an individual 100 or 200 mL glass vial and was dissolved in a volume of 1.25% (v/v) Agri-Dex® crop oil concentrate to obtain application solutions.
For technical grade compounds, a weighed amount was placed in an individual 100 to 200 mL glass vial and dissolved in a volume of acetone to obtain concentrated stock solutions.
Applications were made by injecting with a pipetter appropriate amounts of the application solutions, individually and sequentially, into the aqueous layer of the paddy. Control plants were treated in the same manner with the solvent blank. Applications were made so that all treated plant material received the same concentrations of acetone and crop oil concentrate.
The treated plants and control plants were placed in a greenhouse as described above and water was added as needed to maintain a paddy flood. After approximately 3 weeks the condition of the test plants as compared with that of the untreated plants was determined visually and scored on a scale of 0 to 100 percent where 0 corresponds to no injury or growth inhibition and 100 corresponds to complete kill.
Colby's equation was used to determine the herbicidal effects expected from the mixtures (Colby, S. R. Calculation of the synergistic and antagonistic response of herbicide combinations. Weeds 1967, 15, 20-22.).
The following equation was used to calculate the expected activity of mixtures containing two active ingredients, A and B: Expected=A+B−(A×B/100)

SMILES: COc1c(Cl)ccc(-c2nc(C(=O)OCc3ccccc3)c(Cl)c(N)c2F)c1F [Compound A Benzyl Ester]
- Visual Weed Control (%) - 19 DAA CYPRO Obs (Compound A Benzyl Ester 8 g ae/ha): 20%
- Visual Weed Control (%) - 19 DAA CYPRO Obs (Compound A Benzyl Ester 16 g ae/ha): 88%
- Visual Weed Control (%) - 19 DAA CYPRO Obs (Compound A Benzyl Ester 32 g ae/ha): 87%
